# Laboratory results: patent US20120156771A1, “FUNCTIONAL DISRUPTION OF AN IMMUNOGLOBULIN GENE IN AN AVIAN EMBRYONIC STEM CELL” (Origen Therapeutics, Inc., priority 2002, published 2012)
# Test system: chicken embryonic stem cells
# Test: Titration kill curve: morphology of cES cells under puromycin or neomycin selection
# Assay type: cell-based
# Parameters: key to Morphology of cES cells: ES: ES cells are present.; diff: ES cells are differentiated.; gone: no morphologically recognizable cells are present
# Procedure: In a preferred embodiment, the concentration of puromycin required for selecting transfected cells is calculated as a titration kill curve. Titration kill curves for chicken embryonic stem cells are established by exposing cells in culture to puromycin concentrations varying from 0.0 to 1.0 μg/ml for 10 days (Table 7) and neomycin concentrations varying from 0.0 to 200 μg/ml (Table 8). The medium is changed every 2 days and fresh puromycin or neomycin is added. […] Puromycin concentrations of 0.3-1.0 μg/ml are used for selection of the transfected cultures. Neomycin concentrations over 40 μg/ml eliminated all cES cells within 7 days (Table 8).
substance,measurement,setting,value
neomycin,Morphology of cES cells,"neomycin 10 μg/ml, day 1 under selection",ES
same,Morphology of cES cells,"neomycin 10 μg/ml, day 2 under selection",ES
same,Morphology of cES cells,"neomycin 10 μg/ml, day 3 under selection",ES
same,Morphology of cES cells,"neomycin 10 μg/ml, day 4 under selection",ES
same,Morphology of cES cells,"neomycin 10 μg/ml, day 5 under selection",ES
same,Morphology of cES cells,"neomycin 10 μg/ml, day 6 under selection",ES
same,Morphology of cES cells,"neomycin 10 μg/ml, day 7 under selection",ES
same,Morphology of cES cells,"neomycin 10 μg/ml, day 8 under selection",ES
same,Morphology of cES cells,"neomycin 10 μg/ml, day 9 under selection",ES
same,Morphology of cES cells,"neomycin 10 μg/ml, day 10 under selection",ES
same,Morphology of cES cells,"neomycin 20 μg/ml, day 1 under selection",ES
same,Morphology of cES cells,"neomycin 20 μg/ml, day 2 under selection",ES
same,Morphology of cES cells,"neomycin 20 μg/ml, day 3 under selection",ES
same,Morphology of cES cells,"neomycin 20 μg/ml, day 4 under selection",ES
same,Morphology of cES cells,"neomycin 20 μg/ml, day 5 under selection",ES
same,Morphology of cES cells,"neomycin 20 μg/ml, day 6 under selection",ES
same,Morphology of cES cells,"neomycin 20 μg/ml, day 7 under selection",ES
same,Morphology of cES cells,"neomycin 20 μg/ml, day 8 under selection",ES
same,Morphology of cES cells,"neomycin 20 μg/ml, day 9 under selection",ES
same,Morphology of cES cells,"neomycin 20 μg/ml, day 10 under selection",ES
same,Morphology of cES cells,"neomycin 30 μg/ml, day 1 under selection",ES
same,Morphology of cES cells,"neomycin 30 μg/ml, day 2 under selection",ES
same,Morphology of cES cells,"neomycin 30 μg/ml, day 3 under selection",ES
same,Morphology of cES cells,"neomycin 30 μg/ml, day 4 under selection",ES
same,Morphology of cES cells,"neomycin 30 μg/ml, day 5 under selection",ES
same,Morphology of cES cells,"neomycin 30 μg/ml, day 6 under selection",ES
same,Morphology of cES cells,"neomycin 30 μg/ml, day 7 under selection",ES/Diff
same,Morphology of cES cells,"neomycin 30 μg/ml, day 8 under selection",ES/diff
same,Morphology of cES cells,"neomycin 30 μg/ml, day 9 under selection",Diff
same,Morphology of cES cells,"neomycin 40 μg/ml, day 1 under selection",ES
same,Morphology of cES cells,"neomycin 40 μg/ml, day 2 under selection",ES
same,Morphology of cES cells,"neomycin 40 μg/ml, day 3 under selection",ES
same,Morphology of cES cells,"neomycin 40 μg/ml, day 4 under selection",ES
same,Morphology of cES cells,"neomycin 40 μg/ml, day 5 under selection",ES/Diff
same,Morphology of cES cells,"neomycin 40 μg/ml, day 7 under selection",dead
same,Morphology of cES cells,"neomycin 40 μg/ml, day 8 under selection",gone
same,Morphology of cES cells,"neomycin 40 μg/ml, day 9 under selection",gone
same,Morphology of cES cells,"neomycin 40 μg/ml, day 10 under selection",gone
same,Morphology of cES cells,"neomycin 50 μg/ml, day 1 under selection",ES
same,Morphology of cES cells,"neomycin 50 μg/ml, day 2 under selection",ES
same,Morphology of cES cells,"neomycin 50 μg/ml, day 3 under selection",ES
same,Morphology of cES cells,"neomycin 50 μg/ml, day 4 under selection",ES/Diff
same,Morphology of cES cells,"neomycin 50 μg/ml, day 5 under selection",ES/Diff
same,Morphology of cES cells,"neomycin 50 μg/ml, day 8 under selection",gone
same,Morphology of cES cells,"neomycin 50 μg/ml, day 9 under selection",gone
same,Morphology of cES cells,"neomycin 50 μg/ml, day 10 under selection",gone
same,Morphology of cES cells,"neomycin 60 μg/ml, day 1 under selection",ES
same,Morphology of cES cells,"neomycin 60 μg/ml, day 2 under selection",ES
same,Morphology of cES cells,"neomycin 60 μg/ml, day 3 under selection",ES
same,Morphology of cES cells,"neomycin 60 μg/ml, day 4 under selection",gone
same,Morphology of cES cells,"neomycin 60 μg/ml, day 5 under selection",Gone
same,Morphology of cES cells,"neomycin 60 μg/ml, day 6 under selection",gone
same,Morphology of cES cells,"neomycin 60 μg/ml, day 7 under selection",gone
same,Morphology of cES cells,"neomycin 60 μg/ml, day 8 under selection",gone
same,Morphology of cES cells,"neomycin 60 μg/ml, day 9 under selection",gone
same,Morphology of cES cells,"neomycin 60 μg/ml, day 10 under selection",gone
same,Morphology of cES cells,"neomycin 100 μg/ml, day 1 under selection",ES/Diff
same,Morphology of cES cells,"neomycin 100 μg/ml, day 2 under selection",Diff
same,Morphology of cES cells,"neomycin 100 μg/ml, day 3 under selection",dead
same,Morphology of cES cells,"neomycin 100 μg/ml, day 4 under selection",gone
same,Morphology of cES cells,"neomycin 100 μg/ml, day 5 under selection",Gone
same,Morphology of cES cells,"neomycin 100 μg/ml, day 6 under selection",gone
same,Morphology of cES cells,"neomycin 100 μg/ml, day 7 under selection",gone
same,Morphology of cES cells,"neomycin 100 μg/ml, day 8 under selection",gone
same,Morphology of cES cells,"neomycin 100 μg/ml, day 9 under selection",gone
same,Morphology of cES cells,"neomycin 100 μg/ml, day 10 under selection",gone
same,Morphology of cES cells,"neomycin 150 μg/ml, day 2 under selection",dead
same,Morphology of cES cells,"neomycin 150 μg/ml, day 3 under selection",dead
same,Morphology of cES cells,"neomycin 150 μg/ml, day 4 under selection",gone
same,Morphology of cES cells,"neomycin 150 μg/ml, day 5 under selection",Gone
same,Morphology of cES cells,"neomycin 150 μg/ml, day 6 under selection",gone
same,Morphology of cES cells,"neomycin 150 μg/ml, day 7 under selection",gone
same,Morphology of cES cells,"neomycin 150 μg/ml, day 8 under selection",gone
same,Morphology of cES cells,"neomycin 150 μg/ml, day 9 under selection",gone
same,Morphology of cES cells,"neomycin 150 μg/ml, day 10 under selection",gone
same,Morphology of cES cells,"neomycin 200 μg/ml, day 2 under selection",dead
same,Morphology of cES cells,"neomycin 200 μg/ml, day 3 under selection",gone
same,Morphology of cES cells,"neomycin 200 μg/ml, day 4 under selection",gone
same,Morphology of cES cells,"neomycin 200 μg/ml, day 5 under selection",Gone
same,Morphology of cES cells,"neomycin 200 μg/ml, day 6 under selection",gone
same,Morphology of cES cells,"neomycin 200 μg/ml, day 7 under selection",gone
same,Morphology of cES cells,"neomycin 200 μg/ml, day 8 under selection",gone
same,Morphology of cES cells,"neomycin 200 μg/ml, day 9 under selection",gone
same,Morphology of cES cells,"neomycin 200 μg/ml, day 10 under selection",gone
same,Neomycin concentrations that eliminated all cES cells,within 7 days,over 40 μg/ml
